Test results reported in US8623908B2, “Use of tellurium compounds for inhibition of interleukin-converting enzyme” (Biomas Ltd., priority 2004, dated 2014).
Like-named read-outs stand apart in the source and are kept apart here.

Key:
[1] = target: T1, caspase-1 (ICE-Interleukin-β-converting enzyme), rCaspase-1 (Homo sapiens, UniProt P29466); experiment: Caspase-1 activity enzymatic assay with colorimetric substrate Ac-YVAD-pNA; assay type: biochemical; details: AS101 2.5, 5, 10 μM; 1 hour, 30° C., 405 nm; FIG. 1
T1 construct: purchased Biomol International Industries L.P. Canada
T1 sequence (P29466 120-297 limits assumed): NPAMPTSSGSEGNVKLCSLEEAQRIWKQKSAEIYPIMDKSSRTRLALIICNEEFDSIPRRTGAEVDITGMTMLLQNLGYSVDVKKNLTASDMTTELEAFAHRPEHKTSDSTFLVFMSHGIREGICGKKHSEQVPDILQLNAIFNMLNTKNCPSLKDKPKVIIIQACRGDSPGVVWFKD
T1 sequence (P29466 317-404 limits assumed): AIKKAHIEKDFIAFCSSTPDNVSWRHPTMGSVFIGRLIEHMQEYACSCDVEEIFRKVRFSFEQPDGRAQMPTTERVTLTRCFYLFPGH
Experimental: DTT, which is present in the commercial enzyme solution, interacts with AS101 and thus would interfere with the inhibition studies. Therefore removal of DTT from the enzyme solution prior to the enzymatic assay was necessary. Gel permeation chromatography was carried out at 4° C. 50 μl solution of commercial activated rCaspase-1 was loaded on a 1×15 cm Sephadex G-15 column (Pharmacia), preequilibrated with assay buffer containing: 50 mM Hepes, 100 mM NaCl, 0.1% CHAPS, 1 mM EDTA, 10% Glycerol at pH 7.4. The enzyme was eluted with the same buffer (degassed) at 0.5 ml/minute and 500 μl fractions were collected. The enzyme-substrate reaction was measured continuously with 1 min. intervals for a total time of 1 hour at 30° C. and was read at 405 nm. The total volume of the reaction was 100 μl and contained as following: 50 μl rCaspase-1 (0.8 U/μl), 25 μl colorimetric substrate (Ac-YVAD-pNA, 200 μM), 25 μl of AS101 at various concentrations (2.5 μM, 5 μM, 10 μM) in assay buffer.
AS101 was tested for its possible inhibitory activity towards a member of the cysteine protease family, caspase-1 (ICE-Interleukin-β-converting enzyme). The enzymatic reaction was carried out with caspase-1 specific colorimetric substrate, Ac-YVAD-pNA, and in the absence or the presence of AS101 at different concentrations. The enzyme activity was tested for 1 hour and measured at 405 nm. […]

[2] = system: IL-18 secretion by human PBMC; experiment: SAC-induced secretion of IL-18 by PBMC (ELISA); assay type: cell-based
Experimental: (§1) Human peripheral blood mononuclear cells (PBMC) were isolated from randomly selected healthy donors by Ficoll-Hypaque (Pharmacia, Piscataway, N.J.) density-gradient centrifugation. PBMC were adjusted to 2.5×10^6 cells/ml and cultured in enriched RPMI 1640 medium (Biological industries, Kibbutz Beit Haemek, Israel) with 10% FCS (Biological industries) at 37° C. and 7% CO2.
(§2) Cells were first treated with various concentrations of AS101 and after 1 hour SAC was added. After 24 hours, supernatants were collected and evaluated for cytokine content. Viability at the end of these experiments, as assessed by tryptan blue exclusion method, was always found to be >95%.
(§3) The R&D Systems (Minneapolis, Minn.) IL-18 and IL-1β ELISA kits were used for the quantitative measurement of these cytokines either in supernatants or in mice sera.
(§4) PBMC (2.5×10^6 cells/ml) were treated with various concentrations of AS101 and after 1 hour were stimulated with SAC (10^−3 V/V). Results represent means±SE of three experiments **p<0.05 decrease vs SAC; *p<0.01 decrease vs SAC. Optimal concentration of SAC for cytokine secretion stimulation was 10^−3 v/v (data not shown).

[3] = system: IL-1β secretion by human PBMC; experiment: SAC-induced secretion of IL-1β by PBMC (ELISA); assay type: cell-based
Experimental: as §1, §2, §3, §4

[4] = system: active form of IL-18 in human HaCat keratinocytes; experiment: Western blot of intracellular active form of IL-18 in HaCat keratinocytes; assay type: cell-based; details: AS101 1 μg/ml preincubated 2 hours, FIG. 3
Experimental: Human HaCat keratinocytes were adjusted to 1×10^6 cells/ml and cultured at 37° C. and 7% CO2 in enriched Dulbecco's modified Eagle's medium (DMEM)(Biological industries, Kibbutz Beit Haemek, Israel), supplemented with 10% FCS (Biological industries).
Total cell extracts were prepared by suspension in ice-cold lysis buffer containing 50 mM Tris (pH 8.0), 150 mM NaCl, 1% NP-40, 0.1% SDS, 5 mM EDTA, 0.2 mM PMSF, 50 mM NaF, […] sodium vanadate, […]. Cell lysates were boiled for 5 min and electrophoresed on 15% SDS-PAGE and were then blotted with monoclonal IL-18 antibodies (R&D Systems, Minneapolis, Minn.). Blots were developed using horseradish peroxidase-conjugated secondary antibodies and the ECL detection system (Amersham Pharmacia Biotech).
IL-18 is […] produced by keratinocytes after treatment with LPS or PMA. In order to determine whether the inhibitory effect of AS101 on the formation of the active form of IL-18 is consistent and will repeat itself in another type of cell culture, Western Blot analysis of total cellular proteins from human HaCat keratinocytes was performed using anti-IL-18 antibodies. […]
Cultured keratinocytes (1×10^6 cells/ml) were preincubated for 2 hours with AS101 (1 μg/ml) and then treated with PMA or LPS. Expression of IL-18 was assessed by WB analysis while α-tubulin was used as internal control. […]

[5] = system: IL-18 mRNA in human HaCat keratinocytes; experiment: IL-18 mRNA levels in HaCat cells (RT-PCR); assay type: cell-based; details: AS101 1 μg/ml preincubated 2 hours, FIG. 4b
Experimental: Total RNA was prepared from treated or non treated human keratinocytes by using Tri-reagent (Sigma Aldrich, Rehovot, Israel). Oligo(dt) primed cDNA was synthesized using 2 μg of total RNA. mRNA/cDNA specific cytokine primer pairs were designed and PCR was performed using the following primer pairs (5 μM each): IL-18 (product 558 bp): 178-201 [5′-[…]-3′], 735-759 [5′-[…]-3′]. Cycling conditions were 95° C., 4 minutes; 94° C., 1 minute, 65° C., 1 minute; and 72° C., 1 minute for 29 cycles. GPDH (glyceraldehyde-phosphate-dehydrogenase, product 500 bp) was used as a control: [5′-[…]-3′],[5′-[…]-3′]. The amplified products were visualized using ethidium bromide staining.
Changes at the IL-18 mRNA level were studied when keratinocytes were pretreated with AS101 (1 μg/ml) using optimal concentrations of PMA (10 ng/ml) and LPS (50 ng/ml). Total RNA was isolated from whole cell lysates. GAPDH was used as internal control. Cultured keratinocytes (1×10^6 cells/ml) were either untreated or treated with PMA at 5 ng/ml and 10 ng/ml (line 2 and 3 respectively) and with LPS at 40 ng/ml and 50 ng/ml (line 4 and 5 respectively).
PCR products were amplified for 29 cycles.

[6] = system: IL-18 secretion by human PBMC; experiment: Role of nitric oxide: IL-18 inhibition in PBMC with L-NAME; assay type: cell-based; details: L-NAME 20 nM 2 hours before AS101 0.5 μg/ml; SAC; 24 hours; FIG. 5
Experimental: as §3
L-NAME/D-NAME (20 nM) were delivered to PBMC (2.5×10^6 cells/ml)2 hours before AS101 (0.5 μg/ml). SAC (10^−3 v/v) was added 1 hour following AS101. Supernatants were collected after 24 hours and evaluated for IL-18 levels.

[7] = system: IL-18 secretion by human PBMC; experiment: Role of IFN-γ: IL-18 inhibition in PBMC with IFN-γ neutralizing antibody; assay type: cell-based; details: anti IFN-γ antibody 0.1 μg/ml 2 hours before AS101 0.5 μg/ml; SAC; 24 hours; FIG. 6
Experimental: as §3
In order to investigate the possibility that enhancement of IFN-γ levels by AS101 might have a synergistic effect on IL-18 inhibition, rhIFN-γ neutralizing antibody (0.1 μg/ml) was delivered to PBMC (2.5×10^6 cells/ml) 2 hours before AS101 (0.5 μg/ml). SAC (10^−3 v/v) was added 1 hour following AS101. Supernatants were collected after 24 hours and evaluated for IL-18 levels.

[8] = system: IL-18; experiment: IL-18 levels in LPS-induced septic mice; assay type: in vivo, c57BL/6J mice; details: 24 hours after LPS, FIG. 7a
Experimental: (§5) For serum cytokine evaluation, PBS or AS101 was injected intraperitoneally (i.p.) 2 hours following LPS treatment. For survival experiments AS101 was injected i.p. daily at various concentrations starting 1 hour and up to 24 hours following LPS until the end of the experiment.
as §3
(§6) PBS (control) and AS101 at various concentrations were injected into c57BL/6J mice 2 hours following induction of sepsis by LPS (0.5 mg/mouse) treatment. 24 hours after LPS injection, mice were sacrificed and evaluated for plasma concentration of these cytokines in order to determine whether AS101 can inhibit production of IL-18 and IL-1β in vivo.

[9] = system: IL-1β; experiment: IL-1β levels in LPS-induced septic mice; assay type: in vivo, c57BL/6J mice; details: 24 hours after LPS, FIG. 7b
Experimental: as §5, §3, §6

[10] = system: LPS-induced septic mice; experiment: Survival of LPS-induced septic mice; assay type: in vivo
Experimental: as §5
Data are presented as mean±SE. For comparisons of means of the various groups, the pairwise t test was used. Survival curves were statistically analyzed by comparing the cumulative percentage of survival using the Gehan-Wilcoxon test.
In order to study the relationship between the above in vitro and in vivo results and the effect of AS101 on survival of mice following induction of sepsis, AS101 at a concentration of 10 μg/mouse was injected into LPS-induced septic mice at various time points after LPS (0.35 mg/mouse) treatment. Survival was monitored for 9 days.

[11] = system: PBMC; experiment: Viability of treated cells by trypan blue exclusion; assay type: cell-based, human; details: cells treated with various concentrations of AS101, SAC, 24 hours
Experimental: as §2

[12] = system: human HaCat keratinocytes; experiment: IL-18 production in HaCat keratinocytes after AS101 treatment alone; assay type: cell-based
Experimental: IL-18 production has a self-regulating negative feedback loop. This cytokine can down regulate its own production by inducing the production of a native inhibitor, IL-18BP, through an IFN-γ dependent mechanism. Since AS101 has been previously shown to increase IFN-γ due to the direct inhibition of the […], studies were carried out to determine whether the inhibitory effect of AS101 results from induction of IL-18BP directly and/or whether neutralization of IFN-γ would abrogate the inhibitory effect of AS101 on IL-18.

[13] = system: cysteine proteases; details: via a catalytic thiol oxidation; Inorg. Chem. 37: 1704-1712, 1998; cited from earlier work
[14] = system: serine proteases; details: Inorg. Chem. 37: 1704-1712, 1998; cited from earlier work
[15] = system: metallo proteases; details: Inorg. Chem. 37: 1704-1712, 1998; cited from earlier work
[16] = system: aspartic proteases; details: Inorg. Chem. 37: 1704-1712, 1998; cited from earlier work
[17] = rats, cited from earlier work
[18] = AS101 5 μg/mouse i.p. 2 hours after LPS 0.5 mg/mouse
[19] = AS101 10 μg/mouse i.p. 2 hours after LPS 0.5 mg/mouse

SMILES: Cl[TeH]1(Cl)(Cl)OCCO1 [AS101, ammonium trichloro(dioxyethylene-O,O′)tellurate]
- effect on ICE activity (percent residual enzymatic activity) [1]: inhibits ICE activity directly, in a concentration-dependant manner
- SAC-induced secretion levels of IL-18 ([2]; AS101 1 hour before SAC 10^-3 v/v, after 24 hours, FIG. 2a): decrease SAC-induced secretion levels
- concentration from which the decrease in IL-18 secretion is significant (p<0.05) ([2]; SAC, 24 hours): ≥ 0.5 µg/mL
- SAC-induced secretion levels of IL-1β ([3]; AS101 1 hour before SAC 10^-3 v/v, after 24 hours, FIG. 2b): decrease SAC-induced secretion levels
- concentration from which the decrease in IL-1β secretion is significant (p<0.05) ([3]; SAC, 24 hours): ≥ 0.5 µg/mL
- amounts of the active form of IL-18 ([4]; then LPS 50 ng/ml): produced a decrease in the amounts of the active form of IL-18
- amounts of the active form of IL-18 ([4]; then PMA 10 ng/ml): produced a decrease in the amounts of the active form of IL-18
- IL-18 mRNA levels ([5]; then LPS 50 ng/ml): Changes in mRNA levels were not detected
- IL-18 mRNA levels ([5]; then PMA 10 ng/ml): Changes in mRNA levels were not detected
- inhibitory effect on IL-18 secretion in the presence of NOS inhibitor L-NAME [6]: not diminished
- IL-18 inhibition after neutralization of IFN-γ [7]: does not abrogate IL-18 inhibition
- IL-18 level in septic mice [8, 18]: significantly inhibited
- IL-18 level in septic mice [8, 19]: significantly inhibited
- IL-1β level in septic mice [9, 18]: significantly inhibited
- IL-1β level in septic mice [9, 19]: significantly inhibited
- effect on survival of septic mice ([10]; AS101 10 μg/mouse i.p. daily, injected after LPS 0.35 mg/mouse, survival monitored 9 days, FIG. 8): beneficial effect
- optimal dose for survival ([10]; injected 6 hours following LPS and thereafter every day): 10 μg/mouse
- viability at the end of the experiments [11]: > 95%
- induction of IL-18 production by AS101 treatment [12]: not able to induce IL-18 production
- inhibition of cysteine proteases [13]: inhibits cysteine proteases
- inhibition of serine proteases [14]: no inhibition
- inhibition of metallo proteases [15]: no inhibition
- inhibition of aspartic proteases [16]: no inhibition
- LD50 relative to the immunologically effective dose ([17]; intramuscular administration): 500-1000 folds
- LD50 relative to the immunologically effective dose ([17]; intravenous administration): 500-1000 folds
